This is an account of results in paper PMC9854584, “Synergistic Activity of Pep16, a Promising New Antibacterial Pseudopeptide against Multidrug-Resistant Organisms, in Combination with Colistin against Multidrug-Resistant Escherichia coli, In Vitro and in a Murine Peritonitis Model” (Antibiotics, 2023).

Test [1] has as its system E. coli CFT073-pTOPO. Kind of test: MIC, broth microdilution (EUCAST). It is filed as cell-based, Escherichia coli. The conditions noted are these: at least three experiments. As for the experimental part: (§1) The MICs of Pep16 and colistin were determined by the broth microdilution method in accordance with the EUCAST guidelines (www.eucast.org, accessed on 2 September 2022). In order to investigate for the presence of a potential inoculum effect in vitro, MICs were performed with various inoculum sizes, increasing from 10^5 to 10^7 CFU/mL. To explore MIC variations in the presence of albumin, MICs were also determined in Mueller–Hinton broth (MHB) supplemented with 4% human albumin.
For orientation: Broth dilution looks for growth in wells or tubes with falling amounts of substance.

Test [2] has as its system E. coli CFT073-pTOPO-COLR. Kind of test: MIC, broth microdilution (EUCAST). It is filed as cell-based, Escherichia coli. As for the experimental part: as §1
For another test, the system named is E. coli B119. Kind of test: MIC, broth microdilution (EUCAST). It is filed as cell-based, Escherichia coli. The conditions noted are these: B119, inoculum 10^5 CFU/mL. As for the experimental part:
as §1

A further test relates to E. coli Af31. Description: MIC, broth microdilution (EUCAST). It is filed as cell-based, Escherichia coli. As for the experimental part: as §1
The subject of test [3] is E. coli CFT073-pTOPO. It is filed as in vivo, mice. The conditions noted are these: peritonitis due to CFT073-pTOPO; for mean bacterial counts in the spleen / mice that died before the planned time of the sacrifice: single s.c. dose 2 h after inoculation: Pep16 10 mg/kg, colistin 10 mg/kg, cefotaxime 100 mg/kg, or colistin 10 + Pep16 10 mg/kg; for mice that died before the planned time of the sacrifice: planned sacrifice 3, 6, 12 h. As for the experimental part:
(§2) Animal experiments were performed in accordance with the prevailing regulations and ethical requirements of the Direction of Veterinary Services of Paris. The experimental protocol was approved by the French Ministry of Research and by the Ethics Committee for Animal Experiments (No. APAFIS 22330-2019092415325730). Animals were housed in regulation cages and given free access to food and water. Swiss ICR-strain female mice weighing 25 to 30 g were used.
We used the lethal murine intraperitoneal infection model previously developed by our group. Mice were inoculated by the intraperitoneal route with 250 μL of a bacterial suspension in porcine mucin 10% (Sigma–Aldrich), corresponding to a final inoculum of approximately 2.5 × 10^7 CFU/mL. The strains tested were CFT073-pTOPO and CFT073-pTOPO-COLR. Two hours after inoculation, at least three mice per strain were sacrificed to determine the pre-therapeutic bacterial loads, referred to as start-of-treatment controls, since all untreated mice died within 12 h (data not shown), preventing the use of end-of-treatment controls. Each treatment group was composed of 9 mice, which were administered a single dose of antibiotic (or of a combination of antibiotics) subcutaneously 2 h after inoculation. The treatment groups were Pep16 10 mg/kg, colistin 10 mg/kg, cefotaxime 100 mg/kg, and Pep16 10 mg/kg + colistin 10 mg/kg. Doses of cefotaxime and colistin were chosen based on previous pharmacokinetic analysis, while the dose of Pep16 was chosen based on the present survival study and pharmacokinetic analysis. In each treatment group, mice were sacrificed by 200 µL of pentobarbital 40% (Euthasol VetVR, Dechra Veterinary Products, Montigny-Le-Bretonneux, France) in a sequential way: 3 mice 3 h after treatment, 3 mice 6 h after treatment, and 3 mice 12 h after treatment. Immediately after death, the spleens were extracted and homogenized. Samples were plated on LB agar. To detect resistant mutants after treatment with colistin, samples were also plated on LB agar containing colistin at 4× MIC. The MICs of colistin-resistant mutants were determined (see above). Colony counts were then determined after 48 h of culture. Endpoints were spontaneous death (before the planned time of the sacrifice), bacterial counts in the spleen, and the emergence of colistin-resistant mutants. The assessment criteria of the murine model were: (i) mortality rate; (ii) bacterial counts in peritoneal fluid (PF) and the spleen; and (iii) the selection of colistin-resistant mutants after 24 h of treatment.

Test [4] relates to E. coli CFT073-pTOPO-COLR. Description: Murine peritoneal infection model. Type of test: in vivo, mice. The conditions noted are these: peritonitis due to CFT073-pTOPO-COLR; single s.c. dose: Pep16 10 mg/kg, colistin 10 mg/kg, or colistin 10 + Pep16 10 mg/kg. As for the experimental part: as §2
We used the lethal murine intraperitoneal infection model previously developed by our group. Mice were inoculated by the intraperitoneal route with 250 μL of a bacterial suspension in porcine mucin 10% (Sigma–Aldrich), corresponding to a final inoculum of approximately 2.5 × 10^7 CFU/mL. The strains tested were CFT073-pTOPO and CFT073-pTOPO-COLR. Two hours after inoculation, at least three mice per strain were sacrificed to determine the pre-therapeutic bacterial loads, referred to as start-of-treatment controls, since all untreated mice died within 12 h (data not shown), preventing the use of end-of-treatment controls. Each treatment group was composed of 9 mice, which were administered a single dose of antibiotic (or of a combination of antibiotics) subcutaneously 2 h after inoculation. […] The MICs of colistin-resistant mutants were determined (see above). Colony counts were then determined after 48 h of culture. […]

The subject of test [5] is E. coli CFT073-pTOPO. Kind of test: Flow cytometry study of membrane permeability (Live/Dead BacLight, SYTO9/PI). Type of test: cell-based, Escherichia coli. The conditions noted are these: 30 min exposure, 10^6 CFU/mL; colistin 0.25 mg/L (0.25x MIC), Pep16 16 mg/L (0.25x MIC), alone or combined; positive control 90% ethanol; D/M = Q3/(Q1+Q2+Q3). In general terms: In flow cytometry, cells or beads pass a laser one at a time.
Description: Flow cytometry was used to investigate membrane permeability after exposure to antibiotics. Experiments were executed on a Fortessa X-20 flow cytometer (Becton Dickinson, Le Pont de Claix, France) equipped with a 488 nm laser. Exponentially growing E. coli CFT073-pTOPO cells at 10^6 CFU/mL were obtained and incubated with colistin and/or Pep16 at 0.25× MIC during 30 min. […] The samples were centrifuged and reconstituted in phosphate-buffered saline twice. Cells were then stained by using a Live/Dead BacLight kit (Molecular Probes, Invitrogen, Cergy-Pontoise, France) as previously shown [20]. The kit consists of two fluorescent intercalating agents, propidium iodide (PI) and SYTO9, which both stain nucleic acids. The green-fluorescing SYTO9 is able to enter all cells when used alone, whereas the red-fluorescing PI only enters cells with damaged cytoplasmic membranes. The appropriate mixture of the SYTO9 and PI stains enables differentiation between bacteria with intact cytoplasmic membranes and dead bacteria with permeabilized cytoplasmic membranes. Optical filters were set up such that red fluorescence was measured at 635 nm and green fluorescence was measured at 500 nm. The proportion of dead cells (colored in red)/marked cells (colored in red and/or green) was retrieved for each condition. A minimum of 50,000 events per condition were recorded.

Test [6] has as its system colistin-resistant mutants of E. coli CFT073-pTOPO and B119. Kind of test: MIC for colistin-resistant mutants selected in time-kill curves. Type of test: cell-based, Escherichia coli. The conditions noted are these: mutants after 24 h of exposure to colistin alone in time-kill curves. As for the experimental part: as §1
Time–kill curves were performed with Pep16 (4–128 mg/L) and colistin (0.5–8 mg/L) alone or in combination. Exponentially growing E. coli cells were incubated in 10 mL of Mueller–Hinton broth to obtain 10^6 CFU/mL with Pep16 and/or colistin. Viable counts were enumerated by plating 100 μL of appropriate culture dilutions on to lysogeny broth (LB) agar plates after 0, 1, 3, 6, and 24 h of incubation at 37 °C and expressed in log10 CFU/mL. The lower limit of detection was 1 log10 CFU/mL. A bactericidal effect is defined as a 3 log10 decrease in CFU counts compared with the initial inoculum. A synergistic effect is defined as a 2 log10 decrease in CFU counts between the combination and its most-active constituent after 24 h. […] The MICs of colistin-resistant mutants after 24 h of colistin monotherapy were determined (see above). […]

Converted amounts (≈) assume the structure as drawn. Like-named read-outs stand apart in the source and are kept apart here.

For `CO/N=C(\C(=O)N[C@@H]1C(=O)N2C(C(=O)O)=C(COC(C)=O)CS[C@H]12)c1csc(N)n1` [Cefotaxime, cefotaxime], the MIC (in general, the least concentration at which growth counts as inhibited) in the test on E. coli CFT073-pTOPO [1] (Escherichia coli, CFT073PTOPO, inoculum 10^5 CFU/mL) amounted to 0.06 µg/mL (≈ 0.132 µM); against E. coli CFT073-pTOPO [1] (Escherichia coli, CFT073PTOPO, inoculum 10^6 CFU/mL), 1 µg/mL (≈ 2.2 µM); against E. coli CFT073-pTOPO [1] (Escherichia coli, CFT073PTOPO, inoculum 10^7 CFU/mL), 8 µg/mL (≈ 17.6 µM); in test [2] (Escherichia coli), 0.06 µg/mL (≈ 0.132 µM); with E. coli B119 (Escherichia coli, read-out: MIC), 0.06 µg/mL (≈ 0.132 µM); against E. coli Af31 (Escherichia coli, AF31) it was 0.06 µg/mL (≈ 0.132 µM). In the test with E. coli CFT073-pTOPO [3], the “mean bacterial counts in the spleen” value is recorded as 3.6 × 10^6 CFU/g. For the same compound, the “mice that died before the planned time of the sacrifice” value with E. coli CFT073-pTOPO [3] is recorded as 0/9.

As for colistin sulfate, the “mean bacterial counts in the spleen” value is reported as 4.0 × 10^8 CFU/g in test [4] and 2.7 × 10^8 CFU/g in the test with E. coli CFT073-pTOPO [3]. Further, the “mice that died before the planned time of the sacrifice” value in test [4] is 5/9; in the test with E. coli CFT073-pTOPO [3], 1/9. For the same compound, the minimum inhibitory concentration (MIC) against E. coli CFT073-pTOPO [1] (inoculum 10^5 CFU/mL) was found to be 1 µg/mL; against E. coli CFT073-pTOPO [1] (inoculum 10^6 CFU/mL), 2 µg/mL; against E. coli CFT073-pTOPO [1] (inoculum 10^7 CFU/mL) it was 32 µg/mL; in test [2] (CFT073-pTOPO-COLR, inoculum 10^5 CFU/mL), 16 µg/mL; in the test on E. coli B119 it was 1 µg/mL; against E. coli Af31 (Af31 (mcr-1 plasmid), inoculum 10^5 CFU/mL) it was 8 µg/mL. Besides, the “percentage of dead cells/marked cells (D/M)” value in the test with E. coli CFT073-pTOPO [5] stood at 60%. Further, in the test with E. coli CFT073-pTOPO [3] (colistin 10 mg/kg alone or with Pep16 10 mg/kg), the “proportion of mice with colistin-resistant mutants” value is 9/9. Besides, the “mean counts of colistin-resistant mutants in the spleens” value in the test on E. coli CFT073-pTOPO [3] (colistin 10 mg/kg alone or with Pep16 10 mg/kg, LB agar with colistin at 4x MIC) is reported as 1.6 × 10^3 CFU/g. Besides, in test [6], the “MIC of colistin-resistant mutants” value fell in the range of 8 to 16 µg/mL.
